From PubChem BioAssay AID652026 (The Scripps Research Institute Molecular Screening Center, 2013) come the findings set out here.

The source made the active and inactive calls.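 Rule for the calls: active = STAT5 reporter signal fold change below 0.5 at a 10 µM dose; inactive = the rest.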

This assay has as its system T47D STAT5-luciferase reporter, prolactin-induced, luminescence. Description: STAT5 signaling inhibitors, reporter cells, late-stage follow-up, cell-based, luminescence, T47D, assay provider (AID 652026). The conditions noted are these: at 10 µM; hits give low values.
Consider `O=C(C[n+]1ccc2ccccc2c1)c1ccccc1`, for which the fold change is 0.909 (inactive).

On to `CN1/C(=C\C(=O)C[n+]2cccc(-c3ccccc3)c2)C(C)(C)c2ccccc21`, for which the fold change is 0.367.

With `CN1/C(=C\C(=O)Cn2cc(C(F)(F)F)ccc2=O)C(C)(C)c2ccccc21`, the fold change was 0.971 (inactive).

As to `Cc1cc[n+](CC(=O)/C=C2\N(C)c3ccccc3C2(C)C)c(C)c1`, the fold change is 0.67 (inactive).

Consider `CN1/C(=C\C(=O)CN2C(=O)NC(C)(c3ccc(Cl)cc3)C2=O)C(C)(C)c2ccccc21` (stereo not given), for which the fold change is 0.769 (inactive).

Take `CN1/C(=C\C(=O)C[n+]2ccccc2)C(C)(C)c2ccccc21`: the fold change is 0.777 (inactive).

As to `CN1/C(=C\C(=O)Cn2c(=O)c(C#N)cn(C)c2=O)C(C)(C)c2ccccc21`, the fold change was 0.739 (inactive).

For `CC(C)(C)C(=O)C[n+]1ccc2ccccc2c1`, the fold change was 0.696 (inactive).

As to `CN1/C(=C\C(=O)CN2CCc3ccccc3C2)C(C)(C)c2ccccc21`, the fold change is 0.962 (inactive).

Consider `CCOC(=O)C1CCCN(CC(=O)/C=C2/N(C)c3ccccc3C2(C)C)C1` (stereo not given), for which the fold change was 0.856 (inactive).

On to `O=C(C[n+]1ccc2ccccc2c1)c1ccc2ccccc2c1`, for which the fold change was 0.818 (inactive).

Regarding `CN1/C(=C\C(=O)CN2C(=O)C3CC=CCC3C2=O)C(C)(C)c2ccccc21` (stereo not given), the fold change was 0.473.

For `CN1/C(=C\C(=O)CN2C(=O)c3ccccc3CS2(=O)=O)C(C)(C)c2ccccc21`, the fold change was 0.766 (inactive).

For the molecule `CN1/C(=C\C(=O)Cn2cnc3ccc(Cl)cc3c2=O)C(C)(C)c2ccccc21`, the fold change was 0.845 (inactive).

In the case of `COc1cccc2cc(C(=O)C[n+]3ccc4ccccc4c3)c(=O)oc12`, the fold change is 0.965 (inactive).

As to `CN1/C(=C\C(=O)Cn2nnc(-c3ccccc3)n2)C(C)(C)c2ccccc21`, the fold change is 0.724 (inactive).

Consider `Cc1cc[n+](CC(=O)/C=C2\N(C)c3ccccc3C2(C)C)cc1`, for which the fold change is 0.738 (inactive).

On to `CN1/C(=C\C(=O)CN2C(=O)c3ccccc3C2=O)C(C)(C)c2ccccc21`, for which the fold change was 0.859 (inactive).

In the case of `COC(=O)C1CCCCN1CC(=O)/C=C1/N(C)c2ccccc2C1(C)C` (stereo not given), the fold change was 0.906 (inactive).

In the case of `CN1/C(=C\C(=O)CN2CCCC2)C(C)(C)c2ccccc21`, the fold change was 0.704 (inactive).

Take `O=C(C[n+]1ccc2ccccc2c1)c1cc2ccccc2oc1=O`: the fold change was 0.305.

With `COc1ccc2oc(=O)c(C(=O)C[n+]3ccc4ccccc4c3)cc2c1`, the fold change was 0.843 (inactive).

Consider `CN1/C(=C\C(=O)CN2C(=O)c3ccccc3S2(=O)=O)C(C)(C)c2ccccc21`, for which the fold change is 0.733 (inactive).

For the molecule `O=C(C[n+]1ccc2ccccc2c1)Nc1ccccc1`, the fold change is 0.895 (inactive).

With `CN1/C(=C\C(=O)CN2C(=O)c3ccc([N+](=O)[O-])cc3C2=O)C(C)(C)c2ccccc21`, the fold change is 0.76 (inactive).
